Values after ≈ are worked out from the molar mass of the structure shown. Read-outs that look alike come from different tables or passages of the source. Marks after values point to notes of the source that are not given here.
What was measured:
Escherichia coli = assay: MIC, broth microdilution (Example 1); type: cell-based
Protocol: (§1) Stock solutions of all antibacterial agents were prepared at 80-fold (80×) the final target concentration in the appropriate solvent and the solution was allowed to stand for 60 minutes. All antibacterial agents were in solution under these conditions. The final drug concentrations in the FIC assay plates were set to bracket the MIC value of each agent for each test organism, unless the strain was totally resistant to the test agent.
(§2) The test organisms were originally received from clinical sources, or from the American Type Culture Collection. Upon receipt, the isolates were streaked onto the appropriate growth medium: Chocolate Agar for H. influenzae, Tryptic Soy Agar II (Becton Dickinson, Sparks, Md.) supplemented with 5% defibrinated sheep blood for streptococci, and unsupplemented Tryptic Soy Agar II for all other organisms. Colonies were harvested from these plates and a cell suspension was prepared in Tryptic Soy Broth (Becton Dickinson) containing cryoprotectant. Aliquots were then frozen at −80° C. On the day prior to assay, the frozen seeds of the organisms to be tested in that session were thawed and streaked for isolation onto the appropriate agar medium plates and incubated overnight at 35° C.
(§3) The test medium for H. influenzae was Haemophilus Test Medium. Streptococci were tested in Mueller Hinton II Broth (Becton Dickinson; Lot 6235472) supplemented with 2% lysed horse blood (Cleveland Scientific, Bath, Ohio; Lot H88621). All other organisms were tested in Mueller Hinton II Broth (Becton Dickinson, Lot 6235472). The broth was prepared at 1.05× normal weight/volume to offset the 5% volume of the drugs in the final test plates.
(§4) In order to select the proper test concentrations for each drug combination, minimal inhibitory concentration (MIC) values were first determined using the broth microdilution method previously described (Clinical and Laboratory Standards Institute. Methods for Dilution Antimicrobial Susceptibility Tests for Bacteria That Grow Aerobically; Approved Standard—Seventh Edition. Clinical and Laboratory Standards Institute document M7-A7 [ISBN 1-56238-587-9]. Clinical and Laboratory Standards Institute, 940 West Valley Road, Suite 1400, Wayne, Pa. 19087-1898 USA, 2006).
(§5) The wells of standard 96-well microdilution plates (Falcon 3918) were filled with 150 μL of 100% DMSO using the Multidrop 384. These plates were used to prepare the drug “mother plates” which provided the serial drug dilutions for the drug combination plates. The Biomek 2000 was used to transfer 150 μl of each stock solution (80×) from the wells in Column 1 of a deep well plate to the corresponding wells in Column 1 of the mother plate and to make seven 2-fold serial dilutions. Two mother plates, one for each drug, were combined to form a “checkerboard” pattern by transfer of equal volumes (using a multi-channel pipette) to the drug combination plate. Row H and Column 8 each contained serial dilutions of one of the agents alone for determination of the MIC.
(§6) Plates were stacked 3 high, covered with a lid on the top plate, placed in plastic bags, and incubated at 35° C. for approximately 20 hours. Following incubation, the microplates were removed from the incubator and viewed from the bottom using a ScienceWare plate viewer. Prepared reading sheets were marked for the MIC of drug 1 (row H), the MIC of drug 2 (column 8) and the wells of the growth-no growth interface.

Klebsiella pneumoniae = assay: MIC, broth microdilution (Example 1); type: cell-based
Protocol: as §1, §2, §3, §4, §5, §6

Pseudomonas aeruginosa = assay: MIC, broth microdilution (Example 1); type: cell-based
Protocol: as §1, §2, §3, §4, §5, §6

ESBL-producing E. coli = assay: Susceptibility testing MIC/MBC, broth microdilution (Example 2); type: cell-based, Escherichia coli; settings: for MBC range / MIC range: E. coli (10) clinical isolates; for MBC / MIC: Escherichia coli; for MBC: read-out: MBC; for MIC: read-out: MIC
[1] = test system: ESBL-producing Klebsiella pneumoniae; assay: as above; type: cell-based; settings: for MBC / MIC: Klebsiella pneumoniae; for MBC: read-out: MBC; for MIC: read-out: MIC
[2] = test system: AmpC-derepressed Enterobacter cloacae; assay: microbe, parasite or virus in culture; type: cell-based; settings: for MBC range / MIC range: E. cloacae (10) clinical isolates; for MBC / MIC: Enterobacter cloacae
P. aeruginosa = assay: Susceptibility testing MIC/MBC, broth microdilution (Example 2); type: cell-based, Pseudomonas aeruginosa; settings: for MBC / MIC: Pseudomonas aeruginosa; for MBC: read-out: MBC; for MIC: read-out: MIC
Haemophilus influenzae = assay: MIC, broth microdilution (Example 1); type: cell-based; settings: Haemophilus influenzae, read-out: MIC
Protocol: as §1, §2, §3, §4, §5, §6

Streptococcus pneumoniae = assay: MIC, broth microdilution (Example 1); type: cell-based
Protocol: as §1, §2, §3, §4, §5, §6

Streptococcus pyogenes = assay: MIC, broth microdilution (Example 1); type: cell-based; settings: Streptococcus pyogenes, read-out: MIC
Protocol: as §1, §2, §3, §4, §5, §6

[3] = Escherichia coli, E. coli 1587, read-out: MIC
[4] = Escherichia coli, E. coli 2273 (ESBL), read-out: MIC
[5] = Klebsiella pneumoniae, K. pneumoniae 1340, read-out: MIC
[6] = Klebsiella pneumoniae, K. pneumoniae 1461, read-out: MIC
[7] = K. pneumonia (10) clinical isolates
[8] = P. aeruginosa (20) clinical isolates

NCC[C@H](O)C(=O)N[C@@H]1C[C@H](N)[C@@H](O[C@H]2O[C@H](CN)[C@@H](O)[C@H](O)[C@H]2O)[C@H](O)[C@H]1O[C@H]1O[C@H](CO)[C@@H](O)[C@H](N)[C@H]1O [Amikacin]
MIC (Escherichia coli; [3]): 4 µg/mL | MIC (Escherichia coli; [4]): 8 µg/mL | MIC (Klebsiella pneumoniae; [5]): 1 µg/mL | MIC (Klebsiella pneumoniae; [6]): 1 µg/mL | MIC (Pseudomonas aeruginosa; P. aeruginosa 2555): 8 µg/mL | MIC (Pseudomonas aeruginosa; P. aeruginosa 2559): 4 µg/mL | MBC range (ESBL-producing E. coli): 4 to 64 µg/mL | MIC range (ESBL-producing E. coli): 1 to 16 µg/mL | MBC (ESBL-producing E. coli; E. coli isolate no. 5401): 4 µg/mL (≈ 6.83 µM) | MIC (ESBL-producing E. coli; E. coli isolate no. 5401): 2 µg/mL (≈ 3.42 µM) | MBC (ESBL-producing E. coli; E. coli isolate no. 5411): 16 µg/mL (≈ 27.3 µM) | MIC (ESBL-producing E. coli; E. coli isolate no. 5411): 8 µg/mL (≈ 13.7 µM) | MBC range [1, 7]: 1 to 128 µg/mL | MIC range [1, 7]: 1 to 32 µg/mL | MBC ([1]; K. pneumonia isolate no. 5427): 2 µg/mL (≈ 3.42 µM) | MIC ([1]; K. pneumonia isolate no. 5427): 2 µg/mL (≈ 3.42 µM) | MBC ([1]; K. pneumonia isolate no. 5436): 2 µg/mL (≈ 3.42 µM) | MIC ([1]; K. pneumonia isolate no. 5436): 1 µg/mL (≈ 1.71 µM) | MBC range [2]: 1 to 8 µg/mL | MIC range [2]: 0.5 to 4 µg/mL | MBC ([2]; E. cloacae isolate no. 4073): 8 µg/mL (≈ 13.7 µM) | MIC ([2]; E. cloacae isolate no. 4073): 1 µg/mL (≈ 1.71 µM) | MBC ([2]; E. cloacae isolate no. 5420): 2 µg/mL (≈ 3.42 µM) | MIC ([2]; E. cloacae isolate no. 5420): 1 µg/mL (≈ 1.71 µM) | MBC range (P. aeruginosa; [8]): 2 to 64 µg/mL | MIC range (P. aeruginosa; [8]): 2 to 16 µg/mL | MBC (P. aeruginosa; P. aeruginosa isolate no. 796): 32 µg/mL (≈ 54.6 µM) | MIC (P. aeruginosa; P. aeruginosa isolate no. 796): 16 µg/mL (≈ 27.3 µM) | MBC (P. aeruginosa; P. aeruginosa isolate no. 956): 64 µg/mL (≈ 109 µM) | MIC (P. aeruginosa; P. aeruginosa isolate no. 956): 4 µg/mL (≈ 6.83 µM) | MBC (P. aeruginosa; P. aeruginosa isolate no. 1019): 4 µg/mL (≈ 6.83 µM) | MIC (P. aeruginosa; P. aeruginosa isolate no. 1019): 4 µg/mL (≈ 6.83 µM) | MBC (P. aeruginosa; P. aeruginosa isolate no. 1037): 4 µg/mL (≈ 6.83 µM) | MIC (P. aeruginosa; P. aeruginosa isolate no. 1037): 2 µg/mL (≈ 3.42 µM)

C[C@H]1COc2c(N3CCN(C)CC3)c(F)cc3c(=O)c(C(=O)O)cn1c23 [Levofloxacin]
MIC (Escherichia coli; E. coli 2273 (ESBL)): >4^a μg/mL | MIC (Escherichia coli; [3]): 0.06 µg/mL | MIC (Escherichia coli; [4]): > 4 µg/mL | MIC (Haemophilus influenzae; H. influenzae 1224): 0.015 µg/mL | MIC (Haemophilus influenzae; H. influenzae 2797 (BLNAR)): 0.015 µg/mL | MIC (Haemophilus influenzae; H. influenzae 2798 (BLNAR)): 0.015 µg/mL | MIC (Haemophilus influenzae; H. influenzae 2799 (BLNAR)): 0.015 µg/mL | MIC (Klebsiella pneumoniae; K. pneumoniae 1461): >4^a μg/mL | MIC (Klebsiella pneumoniae; [5]): 0.06 µg/mL | MIC (Klebsiella pneumoniae; [6]): > 4 µg/mL | MIC (Streptococcus pneumoniae; S. pneumoniae 0866 (PSSP)): 1 ^ μg/mL | MIC (Streptococcus pneumoniae; S. pneumoniae 0869 (PSSP)): 1 ^ μg/mL | MIC (Streptococcus pneumoniae; S. pneumoniae 0880 (PRSP)): >4^a μg/mL | MIC (Streptococcus pneumoniae; S. pneumoniae 0884 (PRSP)): 1 ^ μg/mL | MIC (Streptococcus pneumoniae; Streptococcus pneumoniae, PRSP, S. pneumoniae 0880 (PRSP), read-out: MIC): > 4 µg/mL | MIC (Streptococcus pneumoniae; Streptococcus pneumoniae, PRSP, S. pneumoniae 0884 (PRSP), read-out: MIC): 1 µg/mL | MIC (Streptococcus pneumoniae; Streptococcus pneumoniae, S. pneumoniae 0866 (PSSP), read-out: MIC): 1 µg/mL | MIC (Streptococcus pneumoniae; Streptococcus pneumoniae, S. pneumoniae 0869 (PSSP), read-out: MIC): 1 µg/mL | MIC (Streptococcus pyogenes; S. pyogenes 0717): 0.5 µg/mL | MIC (Streptococcus pyogenes; S. pyogenes 0722): 0.5 µg/mL | MBC range (ESBL-producing E. coli): 0.06 to 32 µg/mL | MIC range (ESBL-producing E. coli): 0.03 to 32 µg/mL | MBC (ESBL-producing E. coli; E. coli isolate no. 5401): 32 µg/mL (≈ 88.6 µM) | MIC (ESBL-producing E. coli; E. coli isolate no. 5401): 32 µg/mL (≈ 88.6 µM) | MBC (ESBL-producing E. coli; E. coli isolate no. 5411): 16 µg/mL (≈ 44.3 µM) | MIC (ESBL-producing E. coli; E. coli isolate no. 5411): 8 µg/mL (≈ 22.1 µM) | MBC ([1]; K. pneumonia isolate no. 5427): 2 µg/mL (≈ 5.53 µM) | MIC ([1]; K. pneumonia isolate no. 5427): 0.25 µg/mL (≈ 0.692 µM) | MBC ([1]; K. pneumonia isolate no. 5436): 4 µg/mL (≈ 11.1 µM) | MIC ([1]; K. pneumonia isolate no. 5436): 4 µg/mL (≈ 11.1 µM) | MBC range [2]: 0.03 to 128 µg/mL | MIC range [2]: 0.03 to 64 µg/mL | MBC ([2]; E. cloacae isolate no. 4073): 0.06 µg/mL (≈ 0.166 µM) | MIC ([2]; E. cloacae isolate no. 4073): 0.06 µg/mL (≈ 0.166 µM) | MBC ([2]; E. cloacae isolate no. 5420): 0.06 µg/mL (≈ 0.166 µM) | MIC ([2]; E. cloacae isolate no. 5420): 0.06 µg/mL (≈ 0.166 µM) | MIC range (P. aeruginosa; [8]): 0.25 to 32 µg/mL | MBC (P. aeruginosa; P. aeruginosa isolate no. 796): 2 µg/mL (≈ 5.53 µM) | MIC (P. aeruginosa; P. aeruginosa isolate no. 796): 1 µg/mL (≈ 2.77 µM) | MBC (P. aeruginosa; P. aeruginosa isolate no. 956): 1 µg/mL (≈ 2.77 µM) | MIC (P. aeruginosa; P. aeruginosa isolate no. 956): 0.5 µg/mL (≈ 1.38 µM) | MBC (P. aeruginosa; P. aeruginosa isolate no. 1019): 1 µg/mL (≈ 2.77 µM) | MIC (P. aeruginosa; P. aeruginosa isolate no. 1019): 0.5 µg/mL (≈ 1.38 µM) | MBC (P. aeruginosa; P. aeruginosa isolate no. 1037): 0.5 µg/mL (≈ 1.38 µM) | MIC (P. aeruginosa; P. aeruginosa isolate no. 1037): 0.25 µg/mL (≈ 0.692 µM)
